Earlier results on six molecules are cited in US7691599B2, “Mammalian genes involved in viral infection and tumor suppression” (Zirus, Inc., priority 2002, dated 2010).

For data set [1] the following is noted: for plasma concentration at 3 h: 3 h after single oral dose of 300 mg V11294A; for AUC(0, infinity) / t½ / Cmax: plasma; for AUC(0, infinity) / t½: single oral dose of 300 mg V11294A; for Cmax: single oral fasting dose of 300 mg V11294A, mean +/− s.d.
Data set [2] relates to tumour necrosis factor (TNF) release in whole blood.
Data set [3] deals with mononuclear cell proliferation. The following applies: whole blood, 3 h (P<<0.05).
Data set [4] has as its target T1, I747T mutant NR3C1 (glucocorticoid receptor) (Homo sapiens, UniProt P04150, I747T).
T1 sequence (P04150 1-777 I747T): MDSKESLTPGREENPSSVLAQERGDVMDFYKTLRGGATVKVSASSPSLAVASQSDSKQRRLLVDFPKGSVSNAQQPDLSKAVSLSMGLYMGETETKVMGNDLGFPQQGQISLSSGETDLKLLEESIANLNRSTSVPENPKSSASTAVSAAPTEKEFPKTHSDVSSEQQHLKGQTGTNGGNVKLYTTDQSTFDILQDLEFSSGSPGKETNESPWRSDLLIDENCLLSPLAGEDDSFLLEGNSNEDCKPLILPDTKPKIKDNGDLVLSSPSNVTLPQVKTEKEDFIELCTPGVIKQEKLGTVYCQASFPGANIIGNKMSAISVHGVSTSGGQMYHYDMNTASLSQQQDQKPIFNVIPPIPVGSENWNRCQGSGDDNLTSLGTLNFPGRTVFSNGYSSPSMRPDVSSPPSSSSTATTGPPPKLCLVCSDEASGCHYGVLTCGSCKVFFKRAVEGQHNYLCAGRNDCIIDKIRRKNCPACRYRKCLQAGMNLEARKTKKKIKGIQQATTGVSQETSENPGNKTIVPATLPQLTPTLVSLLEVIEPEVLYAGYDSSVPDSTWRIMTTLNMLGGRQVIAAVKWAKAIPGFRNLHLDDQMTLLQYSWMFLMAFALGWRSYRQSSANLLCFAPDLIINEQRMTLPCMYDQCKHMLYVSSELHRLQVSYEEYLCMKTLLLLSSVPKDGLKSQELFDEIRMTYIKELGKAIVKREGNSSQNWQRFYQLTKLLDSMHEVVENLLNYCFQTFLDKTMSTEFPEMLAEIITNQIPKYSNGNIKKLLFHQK

Data set [5] concerns the target T2, monoamine oxidase type A (Mus musculus, UniProt Q64133).
T2 construct: from tissue; host or cells: whole animal: transgenic mice expressing antisense RNA against glucocorticoid receptor mRNA
T2 sequence (Q64133 1-526): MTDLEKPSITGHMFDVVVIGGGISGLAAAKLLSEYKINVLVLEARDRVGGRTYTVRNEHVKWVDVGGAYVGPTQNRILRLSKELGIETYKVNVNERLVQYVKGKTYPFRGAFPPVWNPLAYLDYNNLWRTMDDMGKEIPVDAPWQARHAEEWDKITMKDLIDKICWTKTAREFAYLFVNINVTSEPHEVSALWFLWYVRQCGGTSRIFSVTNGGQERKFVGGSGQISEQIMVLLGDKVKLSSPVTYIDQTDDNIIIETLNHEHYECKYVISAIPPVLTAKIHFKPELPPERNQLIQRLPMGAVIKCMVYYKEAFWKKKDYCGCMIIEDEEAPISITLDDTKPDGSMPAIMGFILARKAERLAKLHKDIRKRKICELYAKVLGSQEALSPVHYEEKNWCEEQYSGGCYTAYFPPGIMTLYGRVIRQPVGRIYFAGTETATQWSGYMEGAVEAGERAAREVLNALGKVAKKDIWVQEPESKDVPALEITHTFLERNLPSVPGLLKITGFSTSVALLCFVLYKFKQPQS
The note with it: transgenic mice with reduced glucocorticoid receptor function.

Data set [6] concerns the target T3, ADAM 10 (Bos taurus, UniProt Q10741).
T3 construct: purified a protease with characteristics of TNFalpha convertase from bovine spleen membranes; from tissue; host or cells: bovine spleen membranes
T3 sequence (Q10741 214-748): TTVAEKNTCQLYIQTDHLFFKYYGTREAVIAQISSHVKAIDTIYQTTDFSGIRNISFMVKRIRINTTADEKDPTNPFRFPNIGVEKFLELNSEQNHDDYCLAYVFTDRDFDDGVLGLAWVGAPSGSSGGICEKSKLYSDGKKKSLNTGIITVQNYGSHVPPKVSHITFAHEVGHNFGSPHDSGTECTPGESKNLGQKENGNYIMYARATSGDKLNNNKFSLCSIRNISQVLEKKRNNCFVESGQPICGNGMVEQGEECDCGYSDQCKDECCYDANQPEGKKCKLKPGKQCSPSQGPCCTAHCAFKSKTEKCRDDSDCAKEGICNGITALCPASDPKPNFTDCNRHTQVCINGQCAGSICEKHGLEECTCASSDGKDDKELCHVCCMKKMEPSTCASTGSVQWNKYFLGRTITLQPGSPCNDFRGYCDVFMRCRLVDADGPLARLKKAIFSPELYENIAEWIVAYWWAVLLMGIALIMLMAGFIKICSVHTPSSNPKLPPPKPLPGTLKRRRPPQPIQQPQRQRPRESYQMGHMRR
The note with it: ADAM 10 purified from bovine spleen membranes.

Each structure is given as a SMILES string. Where two headings read alike, the source gives them in different places.

As for `COc1ccc(Cn2cnc(N)c3nc(C(C)C)nc2-3)cc1OC1CCCC1` [V10332, 3-(3-cyclopentyloxy-4-methoxy-benzyl)-8-isopropyl-3H-purin-6-ylamine], in data set [1], the “plasma concentration at 3 h” value is 860 ± 300 ng/mL; the “AUC(0, infinity)” value was 18600 ± 8500 ng·h/mL; the t½ is 9.5 ± 1.7 h. Further, the Cmax in data set [1] (healthy volunteers) was 1000 ± 400 ng/mL.
Take `CCNc1ncn(Cc2ccc(OC)c(OC3CCCC3)c2)c2nc(C(C)C)nc1-2.Cl` [V11294A, 3-(3-cyclopentyloxy-4-methoxybenzyl)-6-ethylamino-8-isopropyl-3H purine hydrochloride]: in data set [1], the “plasma concentration at 3 h” value was 1300 ± 330 ng/mL; the “AUC(0, infinity)” value is 18100 ± 6100 ng·h/mL; the t½ was 9.7 ± 3.9 h. In data set [1] (healthy volunteers), the Cmax was 1398 ± 298 ng/mL. The adverse reactions entry in data set [1] (single oral administration, 300 mg, healthy volunteers) was “No adverse reactions were noted”. Moreover, the “LPS-induced TNF release” value in data set [2] (3 h post ingestion (P<<0.001)) is on record as “significant reduction”. Besides, the “LPS-induced TNF release” value in data set [2] (24 h post ingestion (P<<0.05)) is on record as “significant reduction”. In data set [2] (LPS 4 ng ml−1, whole blood, 3 h postdose (before 778+/−87, P=0.02)), the “amount of TNF released in response to LPS” value was 566 ± 72 pmol/mL. In data set [3], the PHA-induced proliferation result is on record as “inhibited”.
With `C[C@]12C[C@H](O)[C@H]3[C@@H](CCC4=CC(=O)CC[C@@]43C)[C@@H]1CC[C@@H]2C(=O)CO` [corticosterone], in data set [4], the “transactivation by I747T mutant NR3C1” value was “completely inactive”.
In the case of `C[C@]12CCC(=O)C=C1CC[C@@H]1[C@@H]2[C@@H](O)C[C@@]2(C)[C@H]1CC[C@]2(O)C(=O)CO` [cortisol], the “transactivation by I747T mutant NR3C1” value in data set [4] was “completely inactive”.
For `O=C(NCCN1CCOCC1)c1ccc(Cl)cc1` [moclobemide], the behavioral deficits result in data set [5] is “reversed the behavioral deficits”.
Regarding `CC(C)C[C@H](NP(=O)(O)O[C@@H]1O[C@@H](C)[C@H](O)[C@@H](O)[C@H]1O)C(=O)N[C@@H](Cc1c[nH]c2ccccc12)C(=O)O` [phosphoramidon], the “sensitivity of the enzyme to inhibitor” value in data set [6] was “insensitive”.
